Experimental data as given in patent publication EP4603105A1, “PHARMACEUTICAL COMPOSITION CONTAINING CYCLIC COMPOUND HAVING SELECTIVE KRAS INHIBITORY EFFECT AGAINST HRAS AND NRAS” (CHUGAI SEIYAKU KABUSHIKI KAISHA, priority 2022, dated 2024).
Where a SMILES comes first, the peptide text is derived from it. Bridges are numbered along the chain shown (N, C = ends). [ ]: non-standard residue; d: D form. The star is where a group is joined. hPhe(3,5-F2-4-CF3) = N[C@@H](CCc1cc(F)c(C(F)(F)F)c(F)c1)C(=O)O; NPrPhe(4-CF3) = CCCN[C@@H](Cc1ccc(C(F)(F)F)cc1)C(=O)O; NMeGly(cPent) = CN[C@H](C(=O)O)C1CCCC1; Nva(3-Et) = CCC(CC)[C@H](N)C(=O)O; NMeD = CN[C@@H](CC(=O)O)C(=O)O; NMeL = CN[C@@H](CC(C)C)C(=O)O; Morpholide = C1CN(*)CCO1; Ac5c = NC1(C(=O)O)CCCC1; Aze = O=C(O)[C@@H]1CCN1; Sar = CNCC(=O)O

Columns and labels:
[1] = target: GDP-bound KRAS wild-type protein (Homo sapiens, UniProt P01116); test: Binding to KRAS by surface plasmon resonance (SPR), dissociation constant KD
Chain of GDP-bound KRAS wild-type protein (P01116 1-188 isoform P01116-2): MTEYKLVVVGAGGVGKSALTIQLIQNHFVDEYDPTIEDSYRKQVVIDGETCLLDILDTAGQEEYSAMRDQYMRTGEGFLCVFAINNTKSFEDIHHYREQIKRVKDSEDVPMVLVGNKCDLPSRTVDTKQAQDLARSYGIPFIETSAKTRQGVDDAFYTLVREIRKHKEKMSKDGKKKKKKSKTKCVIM
Procedure, shortened: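 Recombinant RAS proteins bearing a biotinylated Avi tag and loaded with GDP served as the captured ligand, recaptured fresh every cycle. Binding responses were referenced to an uncoated surface and a buffer-only blank cycle. Dissociation constants were obtained by 1:1 model fitting at 30°C.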

[2] = target: GDP-bound NRAS wild-type protein (Homo sapiens, UniProt P01111); test: Binding to NRAS by surface plasmon resonance (SPR), KD and KD ratio to KRAS
Chain of GDP-bound NRAS wild-type protein (P01111 whole entry): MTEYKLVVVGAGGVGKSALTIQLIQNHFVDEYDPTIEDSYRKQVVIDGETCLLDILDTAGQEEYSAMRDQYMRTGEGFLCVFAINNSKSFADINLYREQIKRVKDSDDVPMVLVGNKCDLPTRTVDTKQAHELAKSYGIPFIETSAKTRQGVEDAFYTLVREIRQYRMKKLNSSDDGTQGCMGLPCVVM
Procedure, shortened: (§1)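 Compound binding is evaluated by SPR single-cycle kinetics, with concentrations added intermittently from low to high for 75 s each. Target surfaces carry GDP-loaded biotinylated Avi-RAS at about 100–300 RU, regenerated after each cycle; temperature 30°C. A 1:1 binding model gives KD.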

HRAS wild-type protein = HRAS wild-type protein (Homo sapiens, UniProt P01112); test: Binding to HRAS by surface plasmon resonance (SPR), KD and KD ratio to KRAS
Chain of HRAS wild-type protein (P01112 whole entry): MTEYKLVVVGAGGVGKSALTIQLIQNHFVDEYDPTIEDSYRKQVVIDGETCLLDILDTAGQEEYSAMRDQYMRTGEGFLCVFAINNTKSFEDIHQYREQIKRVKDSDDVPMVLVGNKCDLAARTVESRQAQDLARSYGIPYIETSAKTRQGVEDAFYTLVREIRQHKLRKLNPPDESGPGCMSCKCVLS
Procedure, shortened: as §1

[3] = tested on: human lung cancer strain NCI-H441; assay type: cell-based
Procedure, shortened: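 Proliferation was scored by […] measured after the reagent was added to cultures kept at 37°C in 5% carbon dioxide.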

[4] = Single Cycle Kinetics, 1:1 binding model
[5] = ratio of KD for GDP-bound NRAS wild-type protein to KD for KRAS
[6] = ratio of KD for HRAS wild-type protein to KD for KRAS
[7] = ratio of the KD value with respect to GDP-bound NRAS wild-type protein to the KD value with respect to KRAS
[8] = ratio of the KD value with respect to HRAS wild-type protein to the KD value with respect to KRAS

Compound | Kd [1, 4] [nM] | NRAS /KRAS ([2]; ratio of KD value for GDP-bound NRAS wild-type protein to KD value for KRAS (SPR)) | HRAS /KRAS (HRAS wild-type protein; ratio of KD value for HRAS wild-type protein to KD value for KRAS (SPR)) | IC50 [3] [nM] | Kd ([1]; 1:1 binding model) [nM] | NRAS /KRAS [2, 5] | HRAS /KRAS (HRAS wild-type protein; [6]) | NRAS /KRAS [2, 7] | HRAS /KRAS (HRAS wild-type protein; [8]) | Kd ([1]; Single Cycle Kinetics) [nM]
CC[C@H](C)[C@@H]1NC(=O)[C@H](CC(C)C)N(C)C(=O)C[C@@H](C(=O)N(CC)CC)N(C)C(=O)[C@H](C2CCCC2)N(C)C(=O)C2(CCC2)NC(=O)[C@@H]2C[C@@H](C)CN2C(=O)[C@H](CCc2ccc(C(F)(F)F)c(OC)c2)NC(=O)CN(C)C(=O)[C@H](Cc2ccc(C)cc2)N2CC/C=C\C[C@@H](C2=O)N(C)C(=O)CN(C)C1=O [PP1849] | 0.38 | A (a compound having 10 or more and less than 20 is denoted as A) | A (a compound having 10 or more and less than 20 is denoted as A) | 37.1 | – | – | – | – | – | –
CCO[C@@H]1C[C@H]2C(=O)NC3(CCC3)C(=O)N(C)[C@@H](C3CCCC3)C(=O)N(C)[C@H](C(=O)N(C)C)CC(=O)N(C)[C@@H](CC3CCCC3)C(=O)N[C@@H]([C@@H](C)CC)C(=O)N(C)CC(=O)N(C)[C@H]3C/C=C\CCN(C3=O)[C@@H](Cc3ccc(C)cc3)C(=O)N(C)CC(=O)N[C@@H](CCc3ccc(CC)c(F)c3)C(=O)N2C1 [PP2686] | – | – | – | 162 | 3.3 | A (a compound having 10 or more and less than 20 is denoted as A) | A (a compound having 10 or more and less than 20 is denoted as A) | – | – | –
CCO[C@@H]1C[C@H]2C(=O)NC3(CC(C)(C)C3)C(=O)N(C)[C@@H](C3CCCC3)C(=O)N(C)[C@H](C(=O)N(C)C)CC(=O)N(C)[C@@H]([C@@H](C)OC)C(=O)N[C@@H]([C@@H](C)CC)C(=O)N3CCC[C@H]3C(=O)N(C)[C@H]3C/C=C\CCN(C3=O)[C@@H](Cc3ccc(C)cc3)C(=O)N(C)CC(=O)N[C@@H](CCc3ccc(C(F)(F)F)c(OC)c3)C(=O)N2C1 [PP3213] | – | – | – | 61.4 | 0.6 | A (a compound having 10 or more and less than 20 is denoted as A) | A (a compound having 10 or more and less than 20 is denoted as A) | – | – | –
CCO[C@@H]1C[C@H]2C(=O)NC3(CC(C)(C)C3)C(=O)N(C)[C@@H](C3CCCC3)C(=O)N(C)[C@H](C(=O)N(C)CC)CC(=O)N(C)[C@@H](CC(C)C)C(=O)N[C@@H]([C@@H](C)CC)C(=O)N(C)CC(=O)N(C)[C@H]3C/C=C\CCN(C3=O)[C@@H](Cc3ccc(C(F)F)cc3)C(=O)N(C)CC(=O)N[C@@H](CCc3cc(F)c(C(F)F)c(OC)c3)C(=O)N2C1 [PP3147] | – | – | – | 54.6 | 0.41 | A (a compound having 10 or more and less than 20 is denoted as A) | A (a compound having 10 or more and less than 20 is denoted as A) | – | – | –
CCCOC[C@H]1C(=O)N[C@@H]([C@@H](C)CC)C(=O)N(C)CC(=O)N(C)[C@H]2C/C=C\CCN(C2=O)[C@@H](Cc2ccc(C(F)(F)F)cc2)C(=O)N(C)CC(=O)N[C@@H](CCc2ccc(C(F)(F)F)c(OC)c2)C(=O)N2C[C@H](OCC)C[C@H]2C(=O)NC2(CCC2)C(=O)N(C)[C@@H](C2CCCC2)C(=O)N(C)[C@H](C(=O)N(C)CCC)CC(=O)N1C [PP2017] | 0.093 | – | – | 2.5 | – | – | – | A (a compound having 10 or more and less than 20 is denoted as A) | A (a compound having 10 or more and less than 20 is denoted as A) | –
CCO[C@@H]1C[C@H]2C(=O)NC3(CCC3)C(=O)N(C)[C@@H](C3CCCC3)C(=O)N(C)[C@H](C(=O)N(C)C)CC(=O)N(C)[C@@H](CC(C)(C)C)C(=O)N[C@@H]([C@@H](C)CC)C(=O)N(C)CC(=O)N(C)[C@H]3CCCCCN(C3=O)[C@@H](Cc3ccc(C(F)(F)F)cc3)C(=O)N(C)CC(=O)N[C@@H](CCc3cc(F)c(C(F)(F)F)c(F)c3)C(=O)N2C1 [PP0669] | 0.52 | – | – | 20.3 | – | – | – | B (a compound having 3 or more and less than 10 is denoted as B) | B (a compound having 3 or more and less than 10 is denoted as B) | –
CC[C@H](C)[C@@H]1NC(=O)[C@H](CC(C)C)N(C)C(=O)C[C@@H](C(=O)N(C)C)N(C)C(=O)[C@H](C2CCCC2)N(C)C(=O)C2(CCCC2)NC(=O)[C@@H]2CCCN2C(=O)[C@H](CCc2ccc(C(F)(F)F)c(Cl)c2)NC(=O)CN(C)C(=O)[C@H](Cc2ccc(C)cc2)N2CC=C(C)C[C@@H](C2=O)N(C)C(=O)CN(C)C1=O [PP0620] | 0.69 | – | – | 38.4 | – | – | – | C (A compound having a KD ratio of 0.1 or more and less than 3 is denoted as C) | C (A compound having a KD ratio of 0.1 or more and less than 3 is denoted as C) | –
CC[C@H](C)[C@@H]1NC(=O)[C@H](CC)N(C)C(=O)C[C@@H](C(=O)N2CCOCC2)N(C)C(=O)[C@H](C2CCCC2)N(C)C(=O)C2(CCCC2)NC(=O)[C@@H]2CCCN2C(=O)[C@H](CCc2ccc(C(F)(F)F)c(Cl)c2)NC(=O)CN(C)C(=O)[C@H](Cc2ccc(F)cc2)N2CCCCC[C@@H](C2=O)N(C)C(=O)CN(C)C1=O [PP0959] | – | – | – | 156 | – | B (a compound having 3 or more and less than 10 is denoted as B) | B (a compound having 3 or more and less than 10 is denoted as B) | – | – | 0.39
CCO[C@@H]1C[C@H]2C(=O)NC3(CCC3)C(=O)N(C)[C@@H](C(CC)CC)C(=O)N(C)[C@H](C(=O)N3CCOCC3)CC(=O)N(C)[C@@H](CC(C)C)C(=O)N[C@@H]([C@@H](C)CC)C(=O)N(C)CC(=O)N(C)[C@H]3CCCCCN(C3=O)[C@@H](Cc3ccc(C(F)(F)F)cc3)C(=O)N(C)CC(=O)N[C@@H](CCc3cc(F)c(C(F)(F)F)c(F)c3)C(=O)N2C1 [PP0820] | – | – | – | 60.1 | – | A (a compound having 10 or more and less than 20 is denoted as A) | B (a compound having 3 or more and less than 10 is denoted as B) | – | – | 1.2
CCCOC[C@H]1C(=O)N[C@@H]([C@@H](C)CC)C(=O)N(C)CC(=O)N(C)[C@H]2C/C=C\CCN(C2=O)[C@@H](Cc2ccc(C(F)(F)F)cc2)C(=O)N(C)CC(=O)N[C@@H](CCc2ccc(C(F)(F)F)c(OC)c2)C(=O)N2C[C@@H](C)C[C@H]2C(=O)NC2(CCC2)C(=O)N(C)[C@@H](C2CCCC2)C(=O)N(C)[C@H](C(=O)N(C)CC)CC(=O)N1C [PP2027] | 0.11 | – | – | 14 | – | – | – | A (a compound having 10 or more and less than 20 is denoted as A) | B (a compound having 3 or more and less than 10 is denoted as B) | –
CCO[C@@H]1C[C@H]2C(=O)NC3(CC(C)(C)C3)C(=O)N(C)[C@@H](C3CCCC3)C(=O)N(C)[C@H](C(=O)N(C)C)CC(=O)N(C)[C@@H]([C@H](C)OC)C(=O)N[C@@H]([C@@H](C)CC)C(=O)N(C3CC3)CC(=O)N(C)[C@H]3C/C=C\CCN(C3=O)[C@@H](Cc3ccc(C)cc3)C(=O)N(C)CC(=O)N[C@@H](CCc3ccc(C(F)(F)F)c(Cl)c3)C(=O)N2C1 [PP3195] | – | – | – | 22.2 | 0.41 | A (a compound having 10 or more and less than 20 is denoted as A) | A (a compound having 10 or more and less than 20 is denoted as A) | – | – | –
CCCOC[C@H]1C(=O)N[C@@H]([C@@H](C)CC)C(=O)N(C)CC(=O)N(C)[C@H]2C/C=C\CCN(C2=O)[C@@H](Cc2ccc(C(F)(F)F)cc2)C(=O)N(C)CC(=O)N[C@@H](CCc2cc(F)c(C(F)(F)F)c(F)c2)C(=O)N2C[C@@H](C)C[C@H]2C(=O)NC2(CCC2)C(=O)N(C)[C@@H](C2CCCC2)C(=O)N(C)[C@H](C(=O)N(C)CCC)CC(=O)N1C [PP2008] | 0.13 | – | – | 15.2 | – | – | – | A (a compound having 10 or more and less than 20 is denoted as A) | A (a compound having 10 or more and less than 20 is denoted as A) | –
CCCN1C(=O)CN(C)C(=O)[C@@H]2CCN2C(=O)[C@H](C(CC)CC)NC(=O)[C@H](CC(C)C)N(C)C(=O)C[C@@H](C(=O)N2CCOCC2)N(C)C(=O)[C@H](C2CCCC2)N(C)C(=O)C2(CCCC2)NC(=O)[C@@H]2CCCN2C(=O)[C@H](CCc2cc(F)c(C(F)(F)F)c(F)c2)NC(=O)CN(C)C(=O)[C@@H]1Cc1ccc(C(F)(F)F)cc1 [PP0785] ([NMeL][Nva(3-Et)][Aze][Sar][NPrPhe(4-CF3)][Sar][hPhe(3,5-F2-4-CF3)]P[Ac5c][NMeGly(cPent)][NMeD]-Morpholide; lactam N-11) | – | – | – | 324 | – | B (a compound having 3 or more and less than 10 is denoted as B) | B (a compound having 3 or more and less than 10 is denoted as B) | – | – | 3
CCC[C@H]1C(=O)N[C@@H](C2CCCC2)C(=O)N(C)CC(=O)N(C)[C@H]2C/C=C\CCN(C2=O)[C@@H](Cc2ccc(C)cc2)C(=O)N(C)CC(=O)N[C@@H](CCc2ccc(C(F)(F)F)c(OC)c2)C(=O)N2C[C@H](OCC)C[C@H]2C(=O)NC2(CC(C)(C)C2)C(=O)N(C)[C@@H](CC(C)(C)C)C(=O)N(C)[C@H](C(=O)N(C)C)CC(=O)N1C [PP3005] | – | – | – | 8.8 | 0.15 | A (a compound having 10 or more and less than 20 is denoted as A) | B (a compound having 3 or more and less than 10 is denoted as B) | – | – | –
